For 29 compounds, IC50 and inhibition results are on record in patent US8822449B2, “Substituted aminoindanes and analogs thereof, and the pharmaceutical use thereof” (Sanofi, priority 2008, dated 2014).

For this assay, the target named is T1, sodium-proton exchanger of subtype 3 (NHE3) (Homo sapiens, UniProt P48764).
T1 construct: expressed in transfected cells
T1 sequence (P48764 26-834): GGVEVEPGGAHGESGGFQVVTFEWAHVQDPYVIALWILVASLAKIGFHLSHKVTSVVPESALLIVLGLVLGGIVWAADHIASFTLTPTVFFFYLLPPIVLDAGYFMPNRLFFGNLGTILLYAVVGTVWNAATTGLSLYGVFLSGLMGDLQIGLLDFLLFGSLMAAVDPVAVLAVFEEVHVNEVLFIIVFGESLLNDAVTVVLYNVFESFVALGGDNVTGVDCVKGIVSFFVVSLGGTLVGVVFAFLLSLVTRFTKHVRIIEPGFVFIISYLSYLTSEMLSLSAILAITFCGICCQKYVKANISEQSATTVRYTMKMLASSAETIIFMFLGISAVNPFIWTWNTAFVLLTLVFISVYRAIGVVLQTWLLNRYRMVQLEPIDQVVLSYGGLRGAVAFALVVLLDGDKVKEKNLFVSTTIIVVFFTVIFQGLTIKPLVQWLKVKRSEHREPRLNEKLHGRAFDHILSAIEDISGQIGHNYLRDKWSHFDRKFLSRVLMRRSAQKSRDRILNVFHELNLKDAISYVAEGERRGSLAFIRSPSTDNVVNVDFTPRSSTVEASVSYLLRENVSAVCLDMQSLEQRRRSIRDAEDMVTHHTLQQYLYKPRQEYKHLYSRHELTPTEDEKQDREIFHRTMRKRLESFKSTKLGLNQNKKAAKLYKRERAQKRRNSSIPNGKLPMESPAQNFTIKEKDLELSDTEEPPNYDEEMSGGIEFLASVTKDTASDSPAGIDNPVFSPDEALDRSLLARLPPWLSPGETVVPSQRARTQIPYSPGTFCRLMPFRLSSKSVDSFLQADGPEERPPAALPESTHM
In words: Recovery of intracellular pH (pHi) after acidification in LAP1 cells stably expressing NHE3 (BCECF fluorescence, FLIPR). As to conditions: LAP1 cells stably expressing NHE3, pH recovery after acidification, range 1 is % inhibition at 10 μM. The assay is classed as cell-based.

[1] abbreviates: read-out: Activity range (inhibitory effect on NHE3).

Structures are written as SMILES. Where two headings read alike, the source gives them in different places.

As to `N#Cc1ccc(O[C@@H]2c3ccccc3C[C@H]2N2CCC(CN)CC2)c(Cl)c1` (racemic) [Example 547, 4-[rac-trans-(1,2)-2-(4-aminomethylpiperidin-1-yl)indan-1-yloxy]-3-chlorobenzonitrile], the IC50 under setting [1] lay in the range of 1 to 10 µM.
Regarding `CC(=O)Nc1cccc(O[C@H]2c3cc(Cl)ccc3C[C@@H]2N2CCCC2)c1` (racemic) [Example 658, N-[3-(rac-trans-(1,2)-6-chloro-2-pyrrolidin-1-ylindan-1-yloxy)phenyl]acetamide], the IC50 under setting [1] is less than 1 µM.
`CN1CCN(c2ccc(F)c(O[C@H]3c4cc(Cl)cc(Cl)c4C[C@@H]3N3CC[C@@H](O)C3)c2)C1=O` [Example 314, 1-{3-[(1S,2S)-4,6-dichloro-2-((R)-3-hydroxypyrrolidin-1-yl)indan-1-yloxy]-4-fluorophenyl}-3-methylimidazolidin-2-one]: under setting [1], the IC50 was less than 1 µM.
Turning to `CC(=O)Nc1cccc(O[C@H]2c3ccc(Cl)cc3C[C@@H]2N2CCCC2)c1` (racemic) [Example 655, N-[3-(rac-trans-(1,2)-5-chloro-2-pyrrolidin-1-ylindan-1-yloxy)phenyl]acetamide], under setting [1], the IC50 is 1 to 10 µM.
For `CN(C1CCNCC1)[C@@H]1Cc2ccccc2[C@H]1Oc1ccc(N2CCNCC2)cc1` (racemic) [Example 630, methyl-[rac-trans-(1,2)-1-(4-piperazin-1-ylphenoxy)indan-2-yl]piperidin-4-ylamine], the IC50 under setting [1] fell in the range of 1 to 10 µM.
The same measure, in the same setting: the figure for `Cc1nnc(C)n1-c1ccc(O[C@H]2c3c(Cl)sc(Cl)c3CC[C@@H]2N2CCCC2)cc1` (racemic) [Example 496, 4-[4-(1,3-dichloro-5-pyrrolidin-1-yl-4,5,6,7-tetrahydrobenzo[c]thiophen-4-yloxy)phenyl]-3,5-dimethyl-4H-[1,2,4]triazole] is 1 to 10 µM.
Take `Cc1nnc(C)n1-c1ccc(O[C@H]2c3cc(Cl)ccc3C[C@@H]2N2CC[C@H](F)C2)c(Cl)c1` [Example 559, 4-{3-chloro-4-[trans-(1S,2S)-6-chloro-2-((S)-3-fluoropyrrolidin-1-yl)indan-1-yloxy]phenyl}-3,5-dimethyl-4H-[1,2,4]triazole]: the IC50 under setting [1] is less than 1 µM.
For the compound `COc1cccc(F)c1O[C@@H]1c2ccccc2C[C@H]1N1CCC(CN)C1` (mixture of isomers) [Example 605, C-{1-[rac-trans-(1,2)-1-(2-fluoro-6-methoxyphenoxy)indan-2-yl]pyrrolidin-3-yl}methylamine], the IC50 under setting [1] lay in the range of 1 to 10 µM.
The same measure, in the same setting: then `c1cc(O[C@@H]2c3ccccc3C[C@H]2N2C[C@H]3CNC[C@H]3C2)cc(N2CCNCC2)c1` (racemic) [Example 13, 2-[rac-trans-(1,2)-1-(3-piperazin-1-ylphenoxy)indan-2-yl]octahydropyrrolo[3,4-c]pyrrole], with 1 to 10 µM; and `CC(=O)Nc1cccc(O[C@H]2c3cc(Cl)cc(Cl)c3C[C@@H]2N2CCNCC2)c1` (racemic) [Example 647, N-[3-(rac-trans-(1,2)-4,6-dichloro-2-piperazin-1-ylindan-1-yloxy)phenyl]acetamide], with 1 to 10 µM.
On to `Brc1ccccc1O[C@@H]1c2ccccc2C[C@H]1N1C[C@H]2CNC[C@H]2C1` (racemic) [Example 11, 2-[rac-trans-(1,2)-1-(2-bromophenoxy)indan-2-yl]octahydropyrrolo[3,4-c]pyrrole], for which, under setting [1], the IC50 was in the range of 1 to 10 µM.
Regarding `CC(=O)Nc1cccc(O[C@H]2c3cc(Cl)cc(Cl)c3C[C@@H]2N2CCC[C@@H](N(C)C)C2)c1` [Example 694, N-{3-[trans-(1S,2S)-4,6-dichloro-2-((R)-3-dimethylaminopiperidin-1-yl)indan-1-yloxy]phenyl}acetamide], under setting [1], the IC50 was less than 1 µM.
Consider `O=S(=O)(NCC(F)(F)F)c1ccc(O[C@@H]2c3ccccc3C[C@H]2N2CCCC2)cc1` (racemic) [Example 469, 4-(rac-trans-(1,2)-2-pyrrolidin-1-ylindan-1-yloxy)-N-(2,2,2-trifluoroethyl)benzenesulfonamide], for which, under setting [1], the IC50 fell in the range of 1 to 10 µM.
For the setting “Activity range (inhibitory effect on NHE3)”, `Clc1cc(Cl)c2c(c1)[C@H](Oc1ccc(-n3cncn3)cc1)[C@@H](N1C[C@H]3CC[C@@H](C1)N3)C2` [Example 2, 3-[trans-(1S,2S)-4,6-dichloro-1-(4-[1,2,4]triazol-1-ylphenoxy)indan-2-yl]-3,8-diazabicyclo[3.2.1]octane] came in with an IC50 of 1 to 10 µM.
Regarding `COc1cc(C#N)cc(Cl)c1O[C@H]1c2ccccc2CC[C@@H]1N1CCC[C@@H](N)C1` (racemic) [Example 512, 4-[rac-trans-(1,2)-2-((R)-3-aminopiperidin-1-yl)-1,2,3,4-tetrahydronaphthalen-1-yloxy]-3-chloro-5-methoxy-benzonitrile], the inhibition at 10 µM under setting [1] lay within 20 to 50%.
Regarding `CS(=O)(=O)c1ccccc1O[C@H]1c2cc(Cl)cc(Cl)c2C[C@@H]1N1CCC1` [Example 245, 1-[(1S,2S)-4,6-dichloro-1-(2-methanesulfonylphenoxy)indan-2-yl]azetidine], the inhibition at 10 µM under setting [1] was 20 to 50%.
With `CS(=O)(=O)c1ccc(O[C@H]2c3ccccc3C[C@@H]2N2CCC[C@@H](NCCC(F)(F)F)C2)cc1` [Example 220, {(R)-1-[trans-(1S,2S)-1-(4-methanesulfonylphenoxy)indan-2-yl]piperidin-3-yl}-(3,3,3-trifluoropropyl)amine], the IC50 under setting [1] is less than 1 µM.
On to `Cc1ccc(O[C@@H]2c3ccccc3C[C@H]2N2C[C@H]3CNC[C@H]3C2)c(Br)c1` (racemic) [Example 10, 2-[rac-trans-(1,2)-1-(2-bromo-4-methylphenoxy)indan-2-yl]octahydropyrrolo[3,4-c]pyrrole], for which, under setting [1], the IC50 fell in the range of 1 to 10 µM.
Turning to `CCc1ccc(O[C@@H]2c3ccccc3C[C@H]2N2CCC[C@@H](N)C2)c(C(C)(C)C)c1` (racemic) [Example 49, (R)-1-[rac-trans-(1,2)-1-(2-tert-butyl-4-ethylphenoxy)indan-2-yl]piperidin-3-ylamine], under setting [1], the IC50 is 1 to 10 µM.
Take `CS(=O)(=O)c1ccc(O[C@@H]2c3cc(Cl)cc(F)c3C[C@H]2N2CCC[C@@H](N)C2)cc1` (racemic) [Example 93, (R)-1-[rac-trans-(1,2)-6-chloro-4-fluoro-1-(4-methanesulfonylphenoxy)indan-2-yl]piperidin-3-ylamine]: under setting [1], the IC50 was less than 1 µM.
In the case of `c1cc(O[C@@H]2c3ccccc3C[C@H]2N2C[C@H]3CNC[C@H]3C2)cc(N2CCCCC2)c1` (racemic) [Example 15, 2-[rac-trans-(1,2)-1-(3-piperidin-1-ylphenoxy)indan-2-yl]octahydropyrrolo[3,4-c]pyrrole], the IC50 under setting [1] lay in the range of 1 to 10 µM.
Take `CCc1ccc(O[C@@H]2c3ccccc3C[C@H]2N2CCC(CN)C2)c(C(C)(C)C)c1` (mixture of isomers) [Example 610, C-{1-[rac-trans-(1,2)-1-(2-tert-butyl-4-ethylphenoxy)indan-2-yl]pyrrolidin-3-yl}methylamine]: the IC50 under setting [1] was 1 to 10 µM.
Still for that read-out and setting: then `CC(=O)Nc1cccc(O[C@H]2c3cccc(F)c3C[C@@H]2N2CCCC2)c1` (racemic) [Example 652, N-[3-(rac-trans-(1,2)-4-fluoro-2-pyrrolidin-1-ylindan-1-yloxy)phenyl]acetamide], with 1 to 10 µM; and `Cc1nnc(C)n1-c1ccc(C(=O)O[C@H]2c3cc(Cl)cc(Cl)c3C[C@@H]2N2CC[C@@H](O)C2)c(Cl)c1` [Example 710, 2-Chloro-4-(3,5-dimethyl-[1,2,4]triazol-4-yl)-benzoic acid trans-(1S,2S)-4,6-dichloro-2-((R)-3-hydroxy-pyrrolidin-1-yl)-indan-1-yl ester], with 1 to 10 µM.
For `CS(=O)(=O)c1ccc(O[C@H]2c3cc(F)cc(F)c3C[C@@H]2N2CC[C@@H](O)C2)cc1` [Example 28, (R)-1-[(1S,2S)-4,6-difluoro-1-(4-methanesulfonylphenoxy)indan-2-yl]pyrrolidin-3-ol], under setting [1], the IC50 was in the range of 1 to 10 µM.
Turning to `N#Cc1ccc(O[C@@H]2c3ccccc3C[C@H]2N2C[C@H]3CNC[C@H]3C2)cc1Cl` (racemic) [Example 393, 2-chloro-4-[rac-trans-(1,2)-2-(hexahydropyrrolo[3,4-c]pyrrol-2-yl)indan-1-yloxy]benzonitrile], the IC50 under setting [1] was in the range of 1 to 10 µM.
For the compound `CS(=O)(=O)c1ccc(O[C@@H]2c3cc(Cl)cc(Cl)c3C[C@H]2n2ccnc2)cc1` (racemic) [Example 278, 1-[rac-trans-(1,2)-4,6-dichloro-1-(4-methanesulfonylphenoxy)indan-2-yl]-1H-imidazole], under setting [1], the IC50 is 1 to 10 µM.
For the compound `COCCc1ccc(O[C@H]2c3ccccc3CC[C@@H]2N2CCC[C@H](N)C2)cc1` (racemic) [Example 202, (S)-1-{rac-trans-(1,2)-1-[4-(2-methoxyethyl)phenoxy]-1,2,3,4-tetrahydronaphthalen-2-yl}piperidin-3-ylamine], the inhibition at 10 µM under setting [1] fell in the range of 20 to 50%.
Regarding `NS(=O)(=O)c1ccc(O[C@H]2c3cc(F)ccc3C[C@@H]2N2CCCC2)cc1` (racemic) [Example 474, 4-(rac-trans-(1,2)-6-fluoro-2-pyrrolidin-1-ylindan-1-yloxy)benzenesulfonamide], the IC50 under setting [1] fell in the range of 1 to 10 µM.
